Assay results taken from patent publication US12077503B2, “Substituted cyclic amides and their use as herbicides” (FMC CORPORATION, priority 2015, dated 2024).

What was measured:
Type in all cases: in vivo
[1] = tested on: blackgrass (Alopecurus myosuroides); test: Test A postemergence; conditions: Alopecurus myosuroides, post-emergence, 240 h
How it was run: (§1)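 Seeded soil received test chemicals as a preemergence directed spray, and seedlings at one to two leaves, 2–10 cm tall, received them postemergence, in a non-phytotoxic, surfactant-containing solvent mixture. Pots were held in a greenhouse for approximately 10 d, then rated for injury from 0, no effect, to 100, complete control.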

corn (Zea mays) = test: Test A postemergence; conditions: Zea mays, post-emergence, 240 h
How it was run: as §1

[2] = tested on: pigweed (Amaranthus retroflexus); test: Test A postemergence; conditions: Amaranthus retroflexus, post-emergence, 240 h
How it was run: as §1

[3] = tested on: ryegrass, Italian (Italian ryegrass, Lolium multiflorum); test: Test A postemergence; conditions: Lolium multiflorum, post-emergence, 240 h
How it was run: as §1

[4] = tested on: wheat (Triticum aestivum); test: Test A postemergence; conditions: Triticum aestivum, post-emergence, 240 h
How it was run: as §1

[5] = tested on: giant foxtail (Setaria faberii); test: Test A postemergence; conditions: Setaria faberi, post-emergence, 240 h
How it was run: as §1

[6] = tested on: ragweed (common ragweed, Ambrosia elatior); test: Test A postemergence; conditions: Ambrosia artemisiifolia, post-emergence, 240 h
How it was run: as §1

Kochia (Kochia scoparia) [7] = test: Test A postemergence; conditions: Bassia scoparia, post-emergence, 240 h
How it was run: as §1

[8] = tested on: Galium (catchweed bedstraw, Galium aparine); test: Test A postemergence; conditions: Galium, post-emergence, 240 h
How it was run: as §1

[9] = tested on: barnyardgrass (Echinochloa crus-galli); test: Test A postemergence; conditions: Echinochloa crus-galli, post-emergence, 240 h
How it was run: as §1

rice (Oryra sativa) = test: Test B flooded paddy test; conditions: Oryza sativa, 250 g ai/ha, Flood; 0 to 100 scale where 0 is no effect and 100 is complete control; read-out: Rice plant response rating
How it was run: (§2)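 Evaluation by eye, against controls, occurred 13–15 d post-treatment in a greenhouse, using a 0 (no effect) to 100 (complete control) scale. Application was into the paddy water, 3 cm deep over the soil, on 2-leaf plants.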

[10] = tested on: sedge, umbrella (small-flower umbrella sedge, Cyperus difformis); test: Test B flooded paddy test; conditions: Cyperus difformis, 250 g ai/ha, Flood; 0 to 100 scale where 0 is no effect and 100 is complete control; read-out: Sedge, Umbrella plant response rating
How it was run: as §2

[11] = tested on: ducksalad (Heteranthera limosa); test: Test B flooded paddy test; conditions: Heteranthera limosa, 250 g ai/ha, Flood; 0 to 100 scale where 0 is no effect and 100 is complete control; read-out: Ducksalad plant response rating
How it was run: as §2

[12] = tested on: barnyardgrass (Echinochloa crus-galli); test: Test B flooded paddy test; conditions: Echinochloa crus-galli, 250 g ai/ha, Flood; 0 to 100 scale where 0 is no effect and 100 is complete control; read-out: Barnyardgrass plant response rating
How it was run: as §2

[13] = tested on: pigweed (Amaranthus retroflexus); test: Test A preemergence; conditions: Amaranthus retroflexus, pre-emergence, 240 h, Preemergence
[14] = tested on: ryegrass, Italian (Italian ryegrass, Lolium multiflorum); test: Test A preemergence; conditions: Lolium multiflorum, pre-emergence, 240 h, Preemergence
How it was run: as §1

[15] = tested on: giant foxtail (Setaria faberii); test: Test A preemergence; conditions: Setaria faberi, pre-emergence, 240 h, Preemergence
How it was run: as §1

[16] = tested on: ragweed (common ragweed, Ambrosia elatior); test: Test A preemergence; conditions: Ambrosia artemisiifolia, pre-emergence, 240 h, Preemergence
How it was run: as §1

Kochia (Kochia scoparia) [17] = test: Test A preemergence; conditions: Bassia scoparia, pre-emergence, 240 h, Preemergence
How it was run: as §1

[18] = tested on: barnyardgrass (Echinochloa crus-galli); test: Test A preemergence; conditions: Echinochloa crus-galli, pre-emergence, 240 h, Preemergence
How it was run: as §1

**Q.** What does the source list for CSc1ccccc1NC(=O)[C@H]1C(=O)NC[C@@H]1c1ccc(C(F)(F)F)cn1 [Compound 1050]?
**A.** pest or weed control at 125 g/ha ([1]; 125 g ai/ha, postemergence, visual injury on 0 to 100 scale (0 no effect, 100 complete control), approx. 10 d, read-out: Blackgrass plant response rating): 0%; pest or weed control at 31 g/ha ([1]; Postemergence, 31 g ai/ha, visual injury after approx. 10 d, 0 to 100 scale, 0 no effect, 100 complete control, read-out: Plant response rating, Blackgrass): 0%; plant injury at 125 g/ha (corn (Zea mays); 125 g ai/ha, postemergence, visual injury on 0 to 100 scale (0 no effect, 100 complete control), approx. 10 d, read-out: Corn plant response rating): 0%; Corn plant response rating (crop injury, 0 = no effect, 100 = complete kill) at 31 g/ha (corn (Zea mays); Postemergence, 31 g ai/ha, visual injury after approx. 10 d, 0 to 100 scale, 0 no effect, 100 complete control): 0%; pest or weed control at 125 g/ha ([2]; 125 g ai/ha, postemergence, visual injury on 0 to 100 scale (0 no effect, 100 complete control), approx. 10 d, read-out: Pigweed plant response rating): 0%; pest or weed control at 31 g/ha ([2]; Postemergence, 31 g ai/ha, visual injury after approx. 10 d, 0 to 100 scale, 0 no effect, 100 complete control, read-out: Plant response rating, Pigweed): 0%; pest or weed control at 125 g/ha ([3]; 125 g ai/ha, postemergence, visual injury on 0 to 100 scale (0 no effect, 100 complete control), approx. 10 d, read-out: Ryegrass, Italian plant response rating): 0%; pest or weed control at 31 g/ha ([3]; Postemergence, 31 g ai/ha, visual injury after approx. 10 d, 0 to 100 scale, 0 no effect, 100 complete control, read-out: Plant response rating, Ryegrass, Italian): 0%; plant injury at 125 g/ha ([4]; 125 g ai/ha, postemergence, visual injury on 0 to 100 scale (0 no effect, 100 complete control), approx. 10 d, read-out: Wheat plant response rating): 0%; plant injury at 31 g/ha ([4]; Postemergence, 31 g ai/ha, visual injury after approx. 10 d, 0 to 100 scale, 0 no effect, 100 complete control, read-out: Plant response rating, Wheat): 0%; pest or weed control at 125 g/ha ([5]; 125 g ai/ha, postemergence, visual injury on 0 to 100 scale (0 no effect, 100 complete control), approx. 10 d, read-out: Foxtail, Giant plant response rating): 0%; pest or weed control at 31 g/ha ([5]; Postemergence, 31 g ai/ha, visual injury after approx. 10 d, 0 to 100 scale, 0 no effect, 100 complete control, read-out: Plant response rating, Foxtail, Giant): 0%; pest or weed control at 125 g/ha ([6]; 125 g ai/ha, postemergence, visual injury on 0 to 100 scale (0 no effect, 100 complete control), approx. 10 d, read-out: Ragweed plant response rating): 0%; pest or weed control at 31 g/ha ([6]; Postemergence, 31 g ai/ha, visual injury after approx. 10 d, 0 to 100 scale, 0 no effect, 100 complete control, read-out: Plant response rating, Ragweed): 0%; pest or weed control at 125 g/ha (Kochia (Kochia scoparia) [7]; 125 g ai/ha, postemergence, visual injury on 0 to 100 scale (0 no effect, 100 complete control), approx. 10 d, read-out: Kochia plant response rating): 0%; pest or weed control at 31 g/ha (Kochia (Kochia scoparia) [7]; Postemergence, 31 g ai/ha, visual injury after approx. 10 d, 0 to 100 scale, 0 no effect, 100 complete control, read-out: Plant response rating, Kochia): 0%; pest or weed control at 125 g/ha ([8]; 125 g ai/ha, postemergence, visual injury on 0 to 100 scale (0 no effect, 100 complete control), approx. 10 d, read-out: Galium plant response rating): 0%; pest or weed control at 31 g/ha ([8]; Postemergence, 31 g ai/ha, visual injury after approx. 10 d, 0 to 100 scale, 0 no effect, 100 complete control, read-out: Plant response rating, Galium): 0%; pest or weed control at 125 g/ha ([9]; 125 g ai/ha, postemergence, visual injury on 0 to 100 scale (0 no effect, 100 complete control), approx. 10 d, read-out: Barnyardgrass plant response rating): 0%; pest or weed control at 31 g/ha ([9]; Postemergence, 31 g ai/ha, visual injury after approx. 10 d, 0 to 100 scale, 0 no effect, 100 complete control, read-out: Plant response rating, Barnyardgrass): 0%; pest or weed control at 250 g/ha (rice (Oryra sativa)): 0%; pest or weed control at 250 g/ha [10]: 0%; pest or weed control at 250 g/ha [11]: 85%; pest or weed control at 250 g/ha [12]: 0%; pest or weed control at 31 g/ha ([13]; 31 g ai/ha, 0 to 100 scale where 0 is no effect and 100 is complete control, read-out: Pigweed plant response rating): 0%; pest or weed control at 125 g/ha ([13]; 125 g ai/ha, visual injury rating after approximately 10 d, read-out: Pigweed plant response rating (0 to 100 scale, 0 is no effect, 100 is complete control)): 0%; pest or weed control at 31 g/ha ([14]; 31 g ai/ha, 0 to 100 scale where 0 is no effect and 100 is complete control, read-out: Ryegrass, Italian plant response rating): 0%; pest or weed control at 125 g/ha ([14]; 125 g ai/ha, visual injury rating after approximately 10 d, read-out: Ryegrass, Italian plant response rating (0 to 100 scale, 0 is no effect, 100 is complete control)): 0%; pest or weed control at 125 g/ha ([15]; 125 g ai/ha, visual injury rating after approximately 10 d, read-out: Foxtail, Giant plant response rating (0 to 100 scale, 0 is no effect, 100 is complete control)): 0%; pest or weed control at 31 g/ha ([15]; 31 g ai/ha, 0 to 100 scale (0 no effect, 100 complete control), read-out: Plant response rating, Foxtail, Giant): 0%; pest or weed control at 31 g/ha ([16]; 31 g ai/ha, 0 to 100 scale where 0 is no effect and 100 is complete control, read-out: Ragweed plant response rating): 0%; pest or weed control at 125 g/ha ([16]; 125 g ai/ha, visual injury rating after approximately 10 d, read-out: Ragweed plant response rating (0 to 100 scale, 0 is no effect, 100 is complete control)): 0%; pest or weed control at 31 g/ha (Kochia (Kochia scoparia) [17]; 31 g ai/ha, 0 to 100 scale where 0 is no effect and 100 is complete control, read-out: Kochia plant response rating): 0%; pest or weed control at 125 g/ha (Kochia (Kochia scoparia) [17]; 125 g ai/ha, visual injury rating after approximately 10 d, read-out: Kochia plant response rating (0 to 100 scale, 0 is no effect, 100 is complete control)): 0%; pest or weed control at 125 g/ha ([18]; 125 g ai/ha, visual injury rating after approximately 10 d, read-out: Barnyardgrass plant response rating (0 to 100 scale, 0 is no effect, 100 is complete control)): 0%; pest or weed control at 31 g/ha ([18]; 31 g ai/ha, 0 to 100 scale (0 no effect, 100 complete control), read-out: Plant response rating, Barnyardgrass): 0%
